Assay results published in PubChem BioAssay AID2060883 (Molecular Pharmacology Branch, DTP, NCI, 2025).
“And” between values parts separate entries of the source, which are not always exact repeats. Equal entries are not always repeated.

System: 843782-103-R-J1-PDC complex spheroid viability
Assay: Anticancer human tumor 843782-103-R-J1-PDC patient-derived lung adenocarcinoma cell line growth inhibition [RAS]
Conditions: for viability, T/C: stronger effect = lower value
Text: RAS pathway inhibitors in Combinations in Complex Spheroids
A high-throughput screen of multi-cell type tumor spheroids was designed to identify active combinations of RAS pathway inhibitors and targeted small molecules. Complex spheroids include a stromal component modeled by human endothelial cells (HUVEC) and fibroblasts modeled by human mesenchymal stem cells (MSCs). The concentration ranges selected for each drug and investigational agent were based upon clinically achievable concentrations if the clinical Cmax of the agent was known.
Compounds. The drugs and investigational agents: abemaciclib (NSC768073), cobimetinib (NSC768068), divarasib (GDC6063, NSC841802), docetaxel (NSC628503), GDC-1971 (RLY-1971, NSC841576), gemcitabine (NSC613327), inavolisib (NSC800729), ipatasertib (NSC767898), KB-0742 (NSC834161), MRTX-1133 (NSC836407), osimertinib (NSC779217), RMC-4630 (NSC839698), RMC-6236 (NSC851965), RMC-6291 (NSC852671), Ro-3306 (NSC812927), sapanisertib (NSC764658), SN-38 (NSC673596), staurosporine (NSC755774), SY5609 (NSC837396), and tovorafenib (DAY101, NSC766906), were obtained from the National Cancer Institute (NCI) Developmental Therapeutics Program Chemical Repository. The FDA-approved anticancer drug set is available from the NCI Developmental Therapeutics Program. […] The stock solutions were prepared in dimethyl sulfoxide (DMSO, Sigma-Aldrich, St. Louis, MO, cat. D2650) at 800-fold the tested concentration and stored at -70 degrees C prior to their use. All drugs and investigational agents were tested over a range starting from a high concentration at or near the clinical Cmax and decreasing in half-log increments. If the clinical Cmax for an agent had not been determined, the highest concentration tested was 10 microM.
Cell Culture. All cells were maintained in an incubator at 37 degrees C and 5% CO2 with 95% humidity. The PDC lines were cultured according to standard operating procedures established by the NCI PDMR. All PDCs were thawed and cultured in Matrigel-coated flasks prepared with a working solution of 1X Ham's F-12 nutrient mix, without supplementation (Invitrogen, Waltham, MA, cat. 11765054), 100 U/mL penicillin-streptomycin (Invitrogen, cat. 15140122), and 2.5% Matrigel (Corning Inc., Corning, NY, cat. 354248) for the first three passages. The 362531-283-R-J2-PDC and 782815-120-R-J1-PDC lines were cultured in 6C/Colon 1B media, which includes advanced DMEM/F-12 (Thermo Fisher Scientific, cat. 12634028), 10 mM HEPES (Thermo Fisher Scientific, cat. 15630080), 1X GlutaMAX supplement (Thermo Fisher Scientific, cat. 35050061), 0.1 mg/mL primocin (InvivoGen, San Diego, CA, cat. ant-pm-2), 10% defined fetal bovine serum, heat inactivated (HyClone Laboratories Inc., Logan, UT, cat. SH30070.03HI), 50% L-WRN conditioned media (ATCC, cat. CRL-3276), 1.25 mM N-Acetyl-L-cysteine (Sigma-Aldrich, cat. A9165), 10 mM nicotinamide (Sigma-Aldrich, cat. N0636), 1X B-27 supplement (Thermo Fisher Scientific, cat. 17504044), 1X N-2 supplement (Thermo Fisher Scientific, cat. 17502048), 50 ng/mL human EGF (Thermo Fisher Scientific, cat. PHG0311), and 10 microM Y-27632 dihydrochloride (Tocris Bioscience, cat. 1254). The K12877-001-R-J1-PDC line was cultured in 6I media, which includes all 6C/Colon 1B media plus 10 ng/mL human FGF-10 (PeproTech, cat. 100-26), 1 ng/mL human FGF-2 (PeproTech, cat. 100-18B), 1 µM prostaglandin E2 (Tocris Bioscience, cat. 2296), […] hydrocortisone (Sigma-Aldrich, cat. H4001), and […] bovine insulin (Sigma-Aldrich, cat. I6634). The K86415-001-R-J1-PDC line was cultured in 6D media, which includes all 6C/Colon 1B media components minus the L-WRN conditioned media. The 485176-168-R4-J1-PDC was cultured in PANC media, which includes all 6C/Colon 1B media plus 100 ng/mL human FGF-10 (PeproTech, cat. 100-26), 500 nM SB-431542 (Selleckchem, cat. S1067), and 10 nM gastrin (Tocris Bioscience, cat. 3006). […]
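Note: viability read after seven days of compound exposure.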

In the case of CCN1CCN(Cc2ccc(Nc3ncc(F)c(-c4cc(F)c5nc(C)n(C(C)C)c5c4)n3)nc2)CC1 + CCn1c(-c2cc(N3CCN(C)CC3)cnc2C(C)OC)c2c3cc(ccc31)-c1csc(n1)CC(NC(=O)C1CC1C)C(=O)N1CCCC(N1)C(=O)OCC(C)(C)C2, the IC50 (curve of first compound, second compound 0.000949 µM) is reported as 0.531 µM, the IC50 (curve of first compound, second compound 0.003 µM) is reported as 0.122 µM and the IC50 (curve of first compound, second compound 0.00949 µM) is reported as < 0.00316 µM. The IC50 (curve of first compound, second compound 0.03 µM) was < 0.00316 µM, the IC50 (curve of first compound, second compound 0.0949 µM) was < 0.00316 µM and the IC50 (curve of first compound, second compound 0.3 µM) was < 0.00316 µM. For the same compound, the viability, T/C (second compound 0.000949 µM, first compound 0.00316 µM) was 79.5%, the viability, T/C (second compound 0.000949 µM, first compound 0.01 µM) was 83.1% and the viability, T/C (second compound 0.000949 µM, first compound 0.0316 µM) was 78.2%. It also gave a viability, T/C (second compound 0.000949 µM, first compound 0.1 µM) of 73%, a viability, T/C (second compound 0.000949 µM, first compound 0.316 µM) of 63.4% and a viability, T/C (second compound 0.000949 µM, first compound 1 µM) of 34.5%. It also gave a viability, T/C (second compound 0.003 µM, first compound 0.00316 µM) of 64%, a viability, T/C (second compound 0.003 µM, first compound 0.01 µM) of 66.3% and a viability, T/C (second compound 0.003 µM, first compound 0.0316 µM) of 57.1%. The viability, T/C (second compound 0.003 µM, first compound 0.1 µM) was 52.2%, the viability, T/C (second compound 0.003 µM, first compound 0.316 µM) was 41.8% and the viability, T/C (second compound 0.003 µM, first compound 1 µM) was 29.9%. For the same compound, the viability, T/C (second compound 0.00949 µM, first compound 0.00316 µM) was 45.9%, the viability, T/C (second compound 0.00949 µM, first compound 0.01 µM) was 42.9% and the viability, T/C (second compound 0.00949 µM, first compound 0.0316 µM) was 34.4%. The viability, T/C (second compound 0.00949 µM, first compound 0.1 µM) was 31.1%, the viability, T/C (second compound 0.00949 µM, first compound 0.316 µM) was 30.1% and the viability, T/C (second compound 0.00949 µM, first compound 1 µM) was 20.8%. It also gave a viability, T/C (second compound 0.03 µM, first compound 0.00316 µM) of 24.5%, a viability, T/C (second compound 0.03 µM, first compound 0.01 µM) of 22.6% and a viability, T/C (second compound 0.03 µM, first compound 0.0316 µM) of 21%. It also gave a viability, T/C (second compound 0.03 µM, first compound 0.1 µM) of 20%, a viability, T/C (second compound 0.03 µM, first compound 0.316 µM) of 18.2% and a viability, T/C (second compound 0.03 µM, first compound 1 µM) of 17%. The viability, T/C (second compound 0.0949 µM, first compound 0.00316 µM) was 17.9%, the viability, T/C (second compound 0.0949 µM, first compound 0.01 µM) was 16.1% and the viability, T/C (second compound 0.0949 µM, first compound 0.0316 µM) was 15.8%. The viability, T/C (second compound 0.0949 µM, first compound 0.1 µM) was 15.2%, the viability, T/C (second compound 0.0949 µM, first compound 0.316 µM) was 16.1% and the viability, T/C (second compound 0.0949 µM, first compound 1 µM) was 14.2%. The viability, T/C (second compound 0.3 µM, first compound 0.00316 µM) was 17.1%, the viability, T/C (second compound 0.3 µM, first compound 0.01 µM) was 12.4% and the viability, T/C (second compound 0.3 µM, first compound 0.0316 µM) was 14%. It also gave a viability, T/C (second compound 0.3 µM, first compound 0.1 µM) of 12.3%, a viability, T/C (second compound 0.3 µM, first compound 0.316 µM) of 13.9% and a viability, T/C (second compound 0.3 µM, first compound 1 µM) of 12.3%.

Nc1ccn(C2OC(CO)C(O)C2(F)F)c(=O)n1 (stereo not given) was tested, and the viability, T/C (compound 0.00316 µM) was 107% [middle of 4 runs], the viability, T/C (compound 0.01 µM) was 101% [middle of 4 runs] and the viability, T/C (compound 0.1 µM) was 3.52% [middle of 4 runs]. The viability, T/C (compound 0.316 µM) was 2.19% [middle of 4 runs], the viability, T/C (compound 1 µM) was 2.92% [middle of 4 runs] and the IC50 (curve of compound) was 34.1 nM [middle of 4 runs].

For C=CC(=O)Nc1cc(Nc2nccc(-c3cn(C)c4ccccc34)n2)c(OC)cc1N(C)CCN(C)C, the viability, T/C (compound 0.00316 µM) was 101% [middle of 4 runs], the viability, T/C (compound 0.01 µM) was 99.7% [middle of 4 runs] and the viability, T/C (compound 0.0316 µM) was 95.9% [middle of 4 runs]. The viability, T/C (compound 0.1 µM) was 102% (2×) and 84% and 95.2%, the viability, T/C (compound 0.316 µM) was 91.4% [middle of 4 runs] and the viability, T/C (compound 1 µM) was 68% [middle of 4 runs]. For the same compound, the IC50 (curve of compound) was > 1 µM.
